Measurements taken from patent US20050197338A1, “Substituted pyrazole urea compounds for the treatment of inflammation” (priority 2003, published 2005).
Read-outs that look alike come from different tables or passages of the source.

Target: T1, human IKK-2 (rhIKK-2 homodimer) (Homo sapiens, UniProt O14920)
T1 construct: FLAG (DYKDDDDKD) (C); made in house; host or cells: insect cells (baculovirus, pFastBac)
T1 sequence (O14920 1-756): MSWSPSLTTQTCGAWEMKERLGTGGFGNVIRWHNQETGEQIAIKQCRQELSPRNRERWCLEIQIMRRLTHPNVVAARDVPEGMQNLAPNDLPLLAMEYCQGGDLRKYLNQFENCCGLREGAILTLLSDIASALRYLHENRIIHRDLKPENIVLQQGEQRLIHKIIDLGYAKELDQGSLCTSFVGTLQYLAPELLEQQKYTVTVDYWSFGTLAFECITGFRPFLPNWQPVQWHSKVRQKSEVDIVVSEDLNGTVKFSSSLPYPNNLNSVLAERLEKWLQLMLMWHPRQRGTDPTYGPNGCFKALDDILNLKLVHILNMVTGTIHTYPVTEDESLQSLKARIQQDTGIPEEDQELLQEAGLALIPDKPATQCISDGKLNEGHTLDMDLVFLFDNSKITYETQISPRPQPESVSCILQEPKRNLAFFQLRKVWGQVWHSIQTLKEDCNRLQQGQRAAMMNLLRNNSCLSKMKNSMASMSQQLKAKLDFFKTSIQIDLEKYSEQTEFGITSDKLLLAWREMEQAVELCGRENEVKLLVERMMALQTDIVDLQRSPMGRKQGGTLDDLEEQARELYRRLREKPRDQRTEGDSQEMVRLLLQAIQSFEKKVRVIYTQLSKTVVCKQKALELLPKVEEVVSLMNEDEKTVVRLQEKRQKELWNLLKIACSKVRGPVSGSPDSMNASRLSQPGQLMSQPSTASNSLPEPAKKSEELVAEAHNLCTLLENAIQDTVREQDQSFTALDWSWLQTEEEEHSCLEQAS
Test: IKK-2 Resin Enzyme Assay (Human IKK-2 Enzyme Assay)
Assay type: biochemical
Outline: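 C-terminally FLAG-tagged human IKK-2 homodimer, baculovirus-expressed in insect cells and anti-FLAG purified. Reaction mix: 5 μM biotinylated IκBα peptide (Ser32/Ser36 region), 1 μM ATP with [γ-33P]ATP, 2 mM MgCl2, 2 mM MnCl2, 10 mM NaF, 1 mM DTT, 25 mM HEPES pH 7.6. Incubated 30 min at 25 °C; IC50 derived.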

[1] = human IKK-2, resin enzyme assay, read-out: IC50 (μM) hIKK-2

NC(=O)Nc1cn(-c2cccc(-c3ccccc3OCc3ccccc3)c2)nc1C(N)=O [Example 86, 4-[(aminocarbonyl)amino]-1-[2′-(benzyloxy)-1,1′-biphenyl-3-yl]-1H-pyrazole-3-carboxamide]
IC50 [1]: 5.91 µM

NC(=O)Nc1cn(-c2cccc(-c3ccccc3CO)c2)nc1C(N)=O [Example 87]
IC50 [1]: 1.52 µM

COc1ccccc1-c1cccc(-n2cc(NC(N)=O)c(C(N)=O)n2)c1 [Example 88, 4-[(aminocarbonyl)amino]-1-(2′-methoxy-1,1′-biphenyl-3-yl)-1H-pyrazole-3-carboxamide]
IC50 [1]: 3.2 µM

Cc1cc(O)ccc1-c1cccc(-n2cc(NC(N)=O)c(C(N)=O)n2)c1 [Example 89, 4-[(aminocarbonyl)amino]-1-(4′-hydroxy-2′-methyl-1,1′-biphenyl-3-yl)-1H-pyrazole-3-carboxamide]
IC50 [1]: 0.7 µM

NC(=O)Nc1cn(-c2cccc(-c3ccc(C(=O)N4CCC(=O)CC4)cc3)c2)nc1C(N)=O [Example 90, 4-[(aminocarbonyl)amino]-1-{4′-[(4-oxopiperidin-1-yl)carbonyl]-1,1′-biphenyl-3-yl}-1H-pyrazole-3-carboxamide]
IC50: 2.81 µM

CC(=O)c1ccccc1-c1cccc(-n2cc(NC(N)=O)c(C(N)=O)n2)c1 [Example 91, 1-(2′-acetyl-1,1′-biphenyl-3-yl)-4-[(aminocarbonyl)amino]-1H-pyrazole-3-carboxamide]
IC50 [1]: 3.45 µM

NC(=O)Nc1cn(-c2ccc(-c3cccc(C(=O)O)c3)cc2)nc1C(N)=O [Example 96, 4′-{3-(aminocarbonyl)-4-[(aminocarbonyl)amino]-1H-pyrazol-1-yl}-1,1′-biphenyl-3-carboxylic acid]
IC50 [1]: 1.45 µM

Cc1cccc(-c2ccc(-n3cc(NC(N)=O)c(C(N)=O)n3)cc2)c1 [Example 102, 4-[(aminocarbonyl)amino]-1-(3′-methyl-1,1′-biphenyl-4-yl)-1H-pyrazole-3-carboxamide]
IC50 [1]: 2.82 µM

Cc1ccc(-c2ccc(-n3cc(NC(N)=O)c(C(N)=O)n3)cc2)cc1 [Example 103]
IC50 [1]: > 20 µM

N#Cc1cccc(-c2ccc(-n3cc(NC(N)=O)c(C(N)=O)n3)cc2)c1 [Example 104, 4-[(aminocarbonyl)amino]-1-(3′-cyano-1,1′-biphenyl-4-yl)-1H-pyrazole-3-carboxamide]
IC50 [1]: 0.677 µM

NC(=O)Nc1cn(-c2ccc(-c3ccccc3CO)cc2)nc1C(N)=O [Example 105, 4-[(aminocarbonyl)amino]-1-[2′-(hydroxymethyl)-1,1′-biphenyl-4-yl]-1H-pyrazole-3-carboxamide]
IC50 [1]: 0.351 µM

COc1cccc(-c2ccc(-n3cc(NC(N)=O)c(C(N)=O)n3)cc2)c1 [Example 107, 4-[(aminocarbonyl)amino]-1-(3′-methoxy-1,1′-biphenyl-4-yl)-1H-pyrazole-3-carboxamide]
IC50 [1]: 0.651 µM

Cc1cc(-c2ccc(-n3cc(NC(N)=O)c(C(N)=O)n3)cc2)ccc1F [Example 109, 4-[(aminocarbonyl)amino]-1-(4′-fluoro-3′-methyl-1,1′-biphenyl-4-yl)-1H-pyrazole-3-carboxamide]
IC50 [1]: 5.52 µM

NC(=O)Nc1nn(-c2ccc(-c3cccc(F)c3F)cc2)cc1C(N)=O [Example 112]
IC50 [1]: 1.99 µM

NC(=O)Nc1nn(-c2ccc(-c3ccc(F)cc3F)cc2)cc1C(N)=O [Example 113]
IC50 [1]: 0.355 µM

NC(=O)Nc1nn(-c2ccc(-c3ccc(F)c(F)c3)cc2)cc1C(N)=O [Example 114]
IC50 [1]: 3.19 µM

CC(C)c1cccc(-c2ccc(-n3cc(C(N)=O)c(NC(N)=O)n3)cc2)c1 [Example 116]
IC50 [1]: 11 µM

CC(C)c1ccc(-c2ccc(-n3cc(C(N)=O)c(NC(N)=O)n3)cc2)cc1 [Example 117]
IC50 [1]: > 20 µM

CSc1cccc(-c2ccc(-n3cc(C(N)=O)c(NC(N)=O)n3)cc2)c1 [Example 118]
IC50 [1]: 3.07 µM

CSc1ccc(-c2ccc(-n3cc(C(N)=O)c(NC(N)=O)n3)cc2)cc1 [Example 119]
IC50 [1]: 0.664 µM

COc1cccc(-c2ccc(-n3cc(NC(N)=O)c(C(N)=O)n3)cc2)c1F [Example 120, 4-[(aminooarbonyl)amino]-1-(2′-fluoro-3′-methoxy-1,1′-biphenyl-4-yl)-1H-pyrazole-3-carboxamide]
IC50 [1]: 0.972 µM

NC(=O)Nc1nn(-c2ccc(-c3ccc4ccccc4c3)cc2)cc1C(N)=O [Example 123]
IC50 [1]: > 20 µM

CC(C)(C)c1ccc(-c2ccc(-n3cc(C(N)=O)c(NC(N)=O)n3)cc2)cc1 [Example 126]
IC50 [1]: > 20 µM

CC(C)Cc1ccc(-c2ccc(-n3cc(C(N)=O)c(NC(N)=O)n3)cc2)cc1 [Example 127]
IC50 [1]: > 20 µM

CCCCc1ccc(-c2ccc(-n3cc(C(N)=O)c(NC(N)=O)n3)cc2)cc1 [Example 128]
IC50 [1]: > 20 µM

COc1ccc(Cl)cc1-c1ccc(-n2cc(NC(N)=O)c(C(N)=O)n2)cc1 [Example 129, 4-[(aminocarbonyl)amino]-1-(5′-chloro-2′-methoxy-1,1′-biphenyl-4-yl)-1H-pyrazole-3-carboxamide]
IC50 [1]: 1.82 µM

NC(=O)Nc1cn(-c2ccc(-c3cccc(-n4cccn4)c3)cc2)nc1C(N)=O [Example 130, 4-[(aminocarbonyl)amino]-1-[3′-(1H-pyrazol-1-yl)-1,1′-biphenyl-4-yl]-1H-pyrazole-3-carboxamide]
IC50 [1]: 1.79 µM

NC(=O)Nc1nn(-c2ccc(-c3cccc(C(F)(F)F)c3)cc2)cc1C(N)=O [Example 131]
IC50 [1]: 3.15 µM

NC(=O)Nc1nn(-c2ccc(-c3ccc(C(F)(F)F)cc3)cc2)cc1C(N)=O [Example 132]
IC50 [1]: 18.8 µM

NC(=O)Nc1cn(-c2ccc(-c3cccc(Cl)c3Cl)cc2)nc1C(N)=O [Example 133, 4-[(aminocarbonyl)amino]-1-(2′,3′-dichloro-1,1′-biphenyl-4-yl)-pyrazole-3-carboxamide]
IC50 [1]: 1.63 µM

NC(=O)Nc1nn(-c2ccc(-c3ccc(Cl)cc3Cl)cc2)cc1C(N)=O [Example 134, 4-[(aminocarbonyl)amino]-1-(2′,4′-dichloro-1,1′-biphenyl-4-yl)-1-pyrazole-3-carboxamide]
IC50 [1]: 3.84 µM

NC(=O)Nc1nn(-c2ccc(-c3cc(Cl)ccc3Cl)cc2)cc1C(N)=O [Example 135]
IC50 [1]: 1.66 µM

NC(=O)Nc1nn(-c2ccc(-c3ccc(Cl)c(Cl)c3)cc2)cc1C(N)=O [Example 136]
IC50 [1]: > 20 µM

NC(=O)Nc1nn(-c2ccc(-c3cc(Cl)cc(Cl)c3)cc2)cc1C(N)=O [Example 137]
IC50 [1]: > 20 µM

CCCCCc1ccc(-c2ccc(-n3cc(C(N)=O)c(NC(N)=O)n3)cc2)cc1 [Example 138]
IC50 [1]: > 20 µM

NC(=O)Nc1nn(-c2ccc(-c3ccc(C4CCCCC4)cc3)cc2)cc1C(N)=O [Example 140]
IC50 [1]: > 20 µM

NC(=O)Nc1cn(-c2ccc(-c3ccc(C(=O)O)cc3)cc2)nc1C(N)=O [Example 142, 4′-{3-(aminocarbonyl)-4-[(aminocarbonyl)amino]-1H-pyrazol-1-yl}-1,1′-biphenyl-4-carboxylic acid]
IC50 [1]: 0.17 µM

CCN(CC)C(=O)c1ccc(-c2ccc(-n3cc(NC(N)=O)c(C(N)=O)n3)cc2)cc1 [Example 143, 4-[(aminocarbonyl)amino]-1-{4′-[(diethylamino)carbonyl]-1,1′-biphenyl-4-yl}-1H-pyrazole-3-carboxamide]
IC50 [1]: 3.31 µM

CCOC(=O)c1cccc(-c2ccc(-n3cc(NC(N)=O)c(C(N)=O)n3)cc2)c1 [Example 144, ethyl 4′-{3-(aminocarbonyl)-4-[(aminocarbonyl)amino]-1H-pyrazol-1-yl}-1,1′-biphenyl-3-carboxylate]
IC50 [1]: 5.05 µM

CNC(=O)c1ccc(-c2ccc(-n3cc(NC(N)=O)c(C(N)=O)n3)cc2)cc1 [Example 145, 4-[(aminocarbonyl)amino]-1-{4′-[(methylamino)carbonyl]-1,1′-biphenyl-4-yl}-1H-pyrazole-3-carboxamide]
IC50 [1]: 0.24 µM

CCCNC(=O)c1ccc(-c2ccc(-n3cc(NC(N)=O)c(C(N)=O)n3)cc2)cc1 [Example 146, 4-[(aminocarbonyl)amino]-1-{4′-[(propylamino)carbonyl]-1,1′-biphenyl-4-yl}-1H-pyrazole-3-carboxamide]
IC50 [1]: 6.28 µM

CCOC(=O)c1ccc(-c2ccc(-n3cc(NC(N)=O)c(C(N)=O)n3)cc2)cc1 [Example 147, ethyl 4′-{3-(aminocarbonyl)-4-[(aminocarbonyl)amino]-1H-pyrazol-1-yl}-1,1′-biphenyl-4-carboxylate]
IC50 [1]: 6.01 µM

CC(C)NC(=O)c1cccc(-c2ccc(-n3cc(NC(N)=O)c(C(N)=O)n3)cc2)c1 [Example 148, 4-[(aminocarbonyl)amino]-1-{3′-[(isopropylamino)carbonyl]-1,1′-biphenyl-4-yl}-1H-pyrazole-3-carboxamide]
IC50 [1]: 7.14 µM
